Our source for the Km values is PMC11088696, “An integrated multi-omics approach reveals polymethoxylated flavonoid biosynthesis in Citrus reticulata cv. Chachiensis” (Nature Communications, 2024).

For test [1], the system named is T1, CcOMT1.
T1 construct: full-length cDNA from CRC leaf cDNA library, BamHI/XhoI in pET-28a(+), E. coli BL21(DE3), Ni-NTA purified; ORF printed 1080 bp but 366 aa printed (inconsistent); primers encode N-terminus MGSTSSE, C-terminus MEFLKSA
In words: HPLC of methylated product, Michaelis-Menten non-linear fit. Type of test: biochemical, Citrus reticulata. To be noted: 5 mM SAM, pH 6.0 phosphate, 50 °C, 2 h, 1 mM DTT. The text has this: HPLC of methylated product, Michaelis-Menten non-linear fit on CcOMT1 | For kinetic studies of CcOMT1 and its variant CcOMT1-W141Y toward natsudaidain

For test [2], the system named is T1, CcOMT1. The description is as above. The test is classed as biochemical, Citrus reticulata. To be noted: 5 mM SAM, pH 6.0 phosphate, 50 °C, 2 h, 1 mM DTT. As for the experimental part:
HPLC of methylated product, Michaelis-Menten non-linear fit on CcOMT1 | To determine the kinetic parameters of CcOMT1, the Michaelis–Menten constant (Km) was determined
This is another data set of the same source.

One may read the Km as the concentration of substrate that gives half-maximal velocity.

As for `COc1ccc(-c2oc3c(OC)c(OC)c(OC)c(OC)c3c(=O)c2O)cc1OC` [compound 1, natsudaidain], the Km in the test on CcOMT1 [1] was found to be 20.8 ± 7.6 µM; in the test with CcOMT1 [2], 25.4 ± 11.3 µM.
